Active and inactive are the calls of the source.
How the values were obtained:
Wee1-like protein kinase = Wee1-like protein kinase (Homo sapiens, UniProt P30291); assay: HeLa cell cycle G2/M accumulation – FACS, mechanism study for Wee1 degradation inhibitor project, late-stage follow-up, panel member Wee1 Degradation (AID 2088)
[1] = target: G2/mitotic-specific cyclin-B1 (Homo sapiens, UniProt P14635); assay: HeLa cell cycle G2/M accumulation – FACS, mechanism study for Wee1 degradation inhibitor project, late-stage follow-up, panel member Cyclin B Degradation (AID 2088)
[2] = NIH-3T3 fibroblast cytotoxicity, dose response, cytotoxicity control, cell-based, fluorescence, Alamar Blue, secondary assay (AID 2327); format: functional;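 note: NIH-3T3 mouse fibroblasts cultured with fluconazole at 8 µg/mL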
[3] = decrease of insulin promoter-GFP reporter – imaging, high-content screening, mouse beta cells (AID 1628); format: functional; conditions: MIN6
[4] = system: Streptococcus sp. 'group A'; assay: Streptococcus pyogenes SK(-)GAS viability under kanamycin – luminescence, BacTiterGlo, confirmation, counter-screen for streptokinase expression inhibitor project, dose response (AID 1900); format: functional, organism-based
[5] = MIN6 cell viability loss – mouse insulinoma, cytotoxicity control, dose response (AID 2122); format: functional;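 note: confirmatory high-throughput counterscreen run to flag cytotoxic compounds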
[6] = fluconazole-exposed Candida albicans growth modulators – fluorescence, retest, confirmation (AID 2467); format: functional, cell-based
[7] = Trypanosoma cruzi growth suppression in host cells – NIH3T3 host cells, beta-gal luminescence, confirmation (AID 2044); format: functional, cell-based;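 note: intracellular parasites grown in NIH/3T3 mouse fibroblasts as host cells; luminescent beta-galactosidase reporter signal from transgenic T. cruzi replicating inside host cells; inhibitors lower the luminescence signal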
[8] = NIH3T3 cell viability loss – ATP luminescence, mouse fibroblasts, counter-screen, dose response (AID 2010); format: functional, cell-based;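 note: cells exposed to compound for about 90 hours before reading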
Streptococcus = assay: GAS UMAA2166 growth inhibition – luminescence, BacTiterGlo, counter-screen for streptokinase expression inhibitor project, dose response (AID 1915); format: functional, organism-based;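 note: potency for reduction of bacterial viability or growth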
[9] = target: C-C chemokine receptor type 6 (Homo sapiens, UniProt P51684); assay: antagonism of CCR6 beta-arrestin recruitment – cell-based, luminescent beta-arrestin readout, dose response (AID 504728); format: functional
Beta-galactosidase = Beta-galactosidase (Escherichia coli, UniProt Q8VNN2); assay: detection-enzyme interference by beta-gal modulators – biochemical, E. coli enzyme, set 3, artefact control for CCR6 antagonist project, dose response (AID 504712); format: functional
Paired box protein Pax-8 = Paired box protein Pax-8 (Homo sapiens, UniProt Q06710); assay: PAX8 transcriptional activity inhibition in RMG-I – RMG-I cells, luciferase, cherry-pick, dose response (AID 687027); format: functional, cell-based;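 note: luciferase reporter driven by Pax8 target thyroperoxidase promoter measured by SteadyGlo luminescence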
Chain of Paired box protein Pax-8 (Q06710 whole entry): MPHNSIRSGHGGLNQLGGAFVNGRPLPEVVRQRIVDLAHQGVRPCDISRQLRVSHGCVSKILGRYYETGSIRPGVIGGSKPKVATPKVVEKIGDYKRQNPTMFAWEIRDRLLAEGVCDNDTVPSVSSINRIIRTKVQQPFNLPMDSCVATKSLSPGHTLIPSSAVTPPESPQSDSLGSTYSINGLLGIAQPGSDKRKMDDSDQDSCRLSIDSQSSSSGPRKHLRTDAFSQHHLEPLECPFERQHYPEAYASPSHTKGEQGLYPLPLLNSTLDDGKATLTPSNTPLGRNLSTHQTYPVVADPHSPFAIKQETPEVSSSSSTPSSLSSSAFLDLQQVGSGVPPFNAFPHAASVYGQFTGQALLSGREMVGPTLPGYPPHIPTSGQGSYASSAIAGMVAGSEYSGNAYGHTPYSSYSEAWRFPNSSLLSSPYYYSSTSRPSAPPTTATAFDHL

[10] = general cell-killing toxicity readout – plate reader, dry powder samples, cytotoxicity control for PAX8 inhibitor project, dose response (AID 743021); format: functional, cell-based
[11] = target: Neurotensin receptor type 1 (Homo sapiens, UniProt P30989); format: functional;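 note: Image-based confirmatory dose-response assay measuring agonist activity at NTR1; NTR1-expressing U2OS osteosarcoma cells imaged for beta-arrestin GFP spot formation; agonist potency where compounds increase beta-arrestin recruitment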
Chain of Neurotensin receptor type 1 (P30989 whole entry): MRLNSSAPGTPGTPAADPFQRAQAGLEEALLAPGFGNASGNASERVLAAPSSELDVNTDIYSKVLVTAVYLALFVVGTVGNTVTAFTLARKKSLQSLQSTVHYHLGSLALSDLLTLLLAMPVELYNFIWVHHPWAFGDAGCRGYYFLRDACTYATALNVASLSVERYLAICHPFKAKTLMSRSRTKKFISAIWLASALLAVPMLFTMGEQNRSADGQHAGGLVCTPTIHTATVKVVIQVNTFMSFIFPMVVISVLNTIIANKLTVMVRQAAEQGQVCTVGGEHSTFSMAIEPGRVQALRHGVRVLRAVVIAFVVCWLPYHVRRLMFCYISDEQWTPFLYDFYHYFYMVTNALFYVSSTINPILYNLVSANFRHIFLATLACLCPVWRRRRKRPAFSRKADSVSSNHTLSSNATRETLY

[12] = target: Alkaline phosphatase, placental type (Homo sapiens, UniProt P05187); assay: human placental alkaline phosphatase inhibition – biochemical, luminescence, confirmation (AID 1512); format: functional
Chain of Alkaline phosphatase, placental type (P05187 whole entry): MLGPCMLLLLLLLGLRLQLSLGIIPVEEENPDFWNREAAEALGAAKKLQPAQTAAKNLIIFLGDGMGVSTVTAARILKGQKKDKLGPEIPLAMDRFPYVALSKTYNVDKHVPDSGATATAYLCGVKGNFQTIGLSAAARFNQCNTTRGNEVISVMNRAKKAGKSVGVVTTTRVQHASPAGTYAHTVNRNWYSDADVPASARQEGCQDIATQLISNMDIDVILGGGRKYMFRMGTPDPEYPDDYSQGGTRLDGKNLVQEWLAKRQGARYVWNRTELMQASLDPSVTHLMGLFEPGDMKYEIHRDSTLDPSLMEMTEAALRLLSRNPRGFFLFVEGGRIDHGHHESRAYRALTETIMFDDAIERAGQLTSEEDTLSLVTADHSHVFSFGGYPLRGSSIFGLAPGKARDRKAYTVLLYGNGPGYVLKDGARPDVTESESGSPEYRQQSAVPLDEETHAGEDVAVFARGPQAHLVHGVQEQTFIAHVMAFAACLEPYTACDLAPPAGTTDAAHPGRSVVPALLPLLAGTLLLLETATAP

[13] = target: T1, Tyrosine-protein phosphatase non-receptor type 7 (Homo sapiens, UniProt P35236); assay: SAR analysis of chemical inhibitors of HePTP using a Fluorescent assay - Set 2. [Related pubchem assays (depositor defined):AID1059, AID1077, AID1661, AID2085, AID521]; format: functional
T1 sequence (P35236 whole entry): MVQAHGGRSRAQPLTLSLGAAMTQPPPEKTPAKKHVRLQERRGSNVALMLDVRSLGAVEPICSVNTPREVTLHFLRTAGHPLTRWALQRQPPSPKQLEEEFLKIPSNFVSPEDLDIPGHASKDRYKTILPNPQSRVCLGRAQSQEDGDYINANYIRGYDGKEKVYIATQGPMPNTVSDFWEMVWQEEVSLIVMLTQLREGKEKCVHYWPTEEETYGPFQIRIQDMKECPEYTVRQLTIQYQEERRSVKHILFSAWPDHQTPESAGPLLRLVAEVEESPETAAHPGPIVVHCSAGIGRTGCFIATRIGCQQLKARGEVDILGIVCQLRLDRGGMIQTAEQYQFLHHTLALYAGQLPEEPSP

[14] = target: T2, Dual specificity protein phosphatase 3 (Homo sapiens, UniProt P51452); assay: SAR VHR1 Fluorescent Assay for In Vitro dose response studies Set 2. [Related pubchem assays (depositor defined):AID1654, AID1661, AID1878]; format: functional
T2 sequence (P51452 whole entry): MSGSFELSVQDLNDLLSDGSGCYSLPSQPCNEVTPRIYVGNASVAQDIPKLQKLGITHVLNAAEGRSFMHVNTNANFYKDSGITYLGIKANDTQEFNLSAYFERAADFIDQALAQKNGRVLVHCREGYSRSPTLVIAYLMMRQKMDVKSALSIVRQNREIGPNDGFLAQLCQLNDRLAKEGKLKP

[15] = target: Protein phosphatase methylesterase 1 (Homo sapiens, UniProt Q9Y570); assay: endogenous PME-1 and serine hydrolase inhibition – cell lysate, mouse brain cytosol, FP-rhodamine, gel ABPP, selectivity assay for PME-1 inhibitor project, dose response, panel member PME-1 Assay Panel member description: Inhibition of endogenously expressed PME-1 (AID 2366)
Chain of Protein phosphatase methylesterase 1 (Q9Y570 whole entry): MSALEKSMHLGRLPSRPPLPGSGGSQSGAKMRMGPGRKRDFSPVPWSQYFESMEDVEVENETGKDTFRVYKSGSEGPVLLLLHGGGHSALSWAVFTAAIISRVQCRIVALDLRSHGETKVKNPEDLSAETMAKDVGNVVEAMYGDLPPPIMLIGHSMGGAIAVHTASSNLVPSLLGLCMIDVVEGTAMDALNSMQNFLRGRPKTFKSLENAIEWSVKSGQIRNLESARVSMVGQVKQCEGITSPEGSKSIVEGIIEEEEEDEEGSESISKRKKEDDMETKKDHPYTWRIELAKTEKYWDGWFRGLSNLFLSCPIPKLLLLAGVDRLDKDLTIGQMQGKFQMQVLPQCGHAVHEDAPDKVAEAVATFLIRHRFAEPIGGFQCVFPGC

[16] = Counterscreen for IDE inhibitors: Luminescence-based cell-based high throughput dose response assay to identify compounds that are cytotoxic to HEK cells. [Related pubchem assays: 434962 (Primary screen (IDE inhibitors in singlicate)), 449730 (Counterscreen (Cytotoxicity in triplicate)), 435028 (Confirmation (IDE inhibitors in triplicate)) …; format: functional; conditions: HEK293
Insulin-degrading enzyme = Insulin-degrading enzyme (Homo sapiens, UniProt P14735); assay: Dose Response: Fluorescence polarization-based cell-based high throughput dose response assay for inhibitors of insulin-degrading enzyme (IDE). [Related pubchem assays: 434962 (Primary screen (IDE inhibitors in singlicate)), 449730 (Counterscreen (Cytotoxicity in triplicate)), 435028 (Confirmation (IDE inhibitors in triplicate)), 434984 (Summary …; format: functional
Chain of Insulin-degrading enzyme (P14735 whole entry): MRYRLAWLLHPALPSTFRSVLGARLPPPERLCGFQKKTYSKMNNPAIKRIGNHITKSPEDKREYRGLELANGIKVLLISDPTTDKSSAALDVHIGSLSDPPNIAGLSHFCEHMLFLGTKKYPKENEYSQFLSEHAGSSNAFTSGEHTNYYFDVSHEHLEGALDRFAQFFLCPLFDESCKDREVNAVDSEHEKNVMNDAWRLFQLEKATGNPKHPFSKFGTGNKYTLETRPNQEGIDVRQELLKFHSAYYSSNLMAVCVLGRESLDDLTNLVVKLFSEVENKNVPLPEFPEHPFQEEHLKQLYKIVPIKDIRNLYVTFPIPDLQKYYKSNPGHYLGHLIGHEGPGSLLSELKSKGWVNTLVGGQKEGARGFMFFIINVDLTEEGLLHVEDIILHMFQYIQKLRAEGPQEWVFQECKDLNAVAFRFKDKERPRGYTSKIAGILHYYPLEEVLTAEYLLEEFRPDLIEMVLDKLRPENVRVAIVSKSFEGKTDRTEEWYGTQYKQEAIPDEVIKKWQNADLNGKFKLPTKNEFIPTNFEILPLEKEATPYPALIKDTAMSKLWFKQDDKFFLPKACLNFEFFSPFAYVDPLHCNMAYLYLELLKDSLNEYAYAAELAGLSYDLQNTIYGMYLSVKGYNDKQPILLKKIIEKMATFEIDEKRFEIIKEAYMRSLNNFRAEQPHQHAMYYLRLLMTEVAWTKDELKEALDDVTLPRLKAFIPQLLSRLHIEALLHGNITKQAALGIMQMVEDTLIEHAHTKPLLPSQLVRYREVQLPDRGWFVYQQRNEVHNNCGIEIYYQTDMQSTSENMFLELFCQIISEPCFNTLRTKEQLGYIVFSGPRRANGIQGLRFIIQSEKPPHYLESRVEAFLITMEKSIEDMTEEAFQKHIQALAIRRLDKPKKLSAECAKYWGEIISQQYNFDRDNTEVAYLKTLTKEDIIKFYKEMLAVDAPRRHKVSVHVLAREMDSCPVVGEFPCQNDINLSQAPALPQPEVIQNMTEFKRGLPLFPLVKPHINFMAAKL

Aspartyl aminopeptidase = Aspartyl aminopeptidase (Plasmodium falciparum 3D7, UniProt Q8I2J3)
Chain of Aspartyl aminopeptidase (Q8I2J3 whole entry): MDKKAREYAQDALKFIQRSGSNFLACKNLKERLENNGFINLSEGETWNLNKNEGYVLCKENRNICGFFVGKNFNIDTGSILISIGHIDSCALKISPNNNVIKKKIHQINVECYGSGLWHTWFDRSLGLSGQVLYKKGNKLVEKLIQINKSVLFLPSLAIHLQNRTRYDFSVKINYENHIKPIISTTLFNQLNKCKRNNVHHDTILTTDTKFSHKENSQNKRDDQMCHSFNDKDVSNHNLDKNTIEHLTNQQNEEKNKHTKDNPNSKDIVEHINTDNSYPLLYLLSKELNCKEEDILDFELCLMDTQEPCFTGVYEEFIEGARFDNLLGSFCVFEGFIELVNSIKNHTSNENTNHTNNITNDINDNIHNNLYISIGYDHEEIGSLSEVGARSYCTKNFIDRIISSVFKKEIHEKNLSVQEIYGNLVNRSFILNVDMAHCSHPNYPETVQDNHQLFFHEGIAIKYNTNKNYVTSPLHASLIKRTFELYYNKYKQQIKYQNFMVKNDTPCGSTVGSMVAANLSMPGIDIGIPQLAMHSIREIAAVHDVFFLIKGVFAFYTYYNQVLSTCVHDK

Procathepsin L = Procathepsin L (Homo sapiens, UniProt P07711)
Chain of Procathepsin L (P07711 whole entry): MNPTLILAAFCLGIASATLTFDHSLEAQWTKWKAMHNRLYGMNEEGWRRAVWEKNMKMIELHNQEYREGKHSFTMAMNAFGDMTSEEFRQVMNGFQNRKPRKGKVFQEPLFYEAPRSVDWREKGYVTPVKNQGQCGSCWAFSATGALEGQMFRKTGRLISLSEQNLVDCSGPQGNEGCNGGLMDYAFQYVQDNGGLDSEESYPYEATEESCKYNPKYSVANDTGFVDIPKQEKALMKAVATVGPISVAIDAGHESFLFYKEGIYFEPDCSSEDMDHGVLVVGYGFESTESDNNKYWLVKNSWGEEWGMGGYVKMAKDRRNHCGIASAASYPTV

[17] = target: T3, Mannose-6-phosphate isomerase (Homo sapiens, UniProt P34949); assay: MPI enzyme activity inhibition – biochemical, fluorescence intensity, coupled assay, primary screen (AID 1209)
T3 sequence (P34949 whole entry): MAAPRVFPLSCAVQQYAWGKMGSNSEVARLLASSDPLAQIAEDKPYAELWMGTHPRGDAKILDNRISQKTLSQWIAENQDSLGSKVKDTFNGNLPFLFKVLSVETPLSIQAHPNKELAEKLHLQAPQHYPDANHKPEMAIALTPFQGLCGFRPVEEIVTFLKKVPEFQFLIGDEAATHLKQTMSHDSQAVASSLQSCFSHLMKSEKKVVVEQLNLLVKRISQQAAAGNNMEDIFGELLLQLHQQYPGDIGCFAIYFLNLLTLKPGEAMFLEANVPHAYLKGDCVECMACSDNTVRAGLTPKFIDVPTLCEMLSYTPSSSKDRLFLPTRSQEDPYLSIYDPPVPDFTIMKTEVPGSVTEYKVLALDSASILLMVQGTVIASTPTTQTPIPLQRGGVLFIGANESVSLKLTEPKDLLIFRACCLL

[18] = target: Glucose-6-phosphate 1-dehydrogenase (Homo sapiens, UniProt P11413); assay: inhibition of Homo sapiens G6PD, dose series – biochemical, fluorescence, selectivity assay for P. falciparum G6PD inhibitor project, dose response (AID 504792); format: functional
[19] = target: T4, Eukaryotic translation initiation factor 2-alpha kinase 3 (Homo sapiens, UniProt Q9NZJ5); assay: Dose response cell-based high-throughput screening assay to measure PERK inhibition. [Related pubchem assays: 1416 ]; format: functional
T4 sequence (Q9NZJ5 whole entry): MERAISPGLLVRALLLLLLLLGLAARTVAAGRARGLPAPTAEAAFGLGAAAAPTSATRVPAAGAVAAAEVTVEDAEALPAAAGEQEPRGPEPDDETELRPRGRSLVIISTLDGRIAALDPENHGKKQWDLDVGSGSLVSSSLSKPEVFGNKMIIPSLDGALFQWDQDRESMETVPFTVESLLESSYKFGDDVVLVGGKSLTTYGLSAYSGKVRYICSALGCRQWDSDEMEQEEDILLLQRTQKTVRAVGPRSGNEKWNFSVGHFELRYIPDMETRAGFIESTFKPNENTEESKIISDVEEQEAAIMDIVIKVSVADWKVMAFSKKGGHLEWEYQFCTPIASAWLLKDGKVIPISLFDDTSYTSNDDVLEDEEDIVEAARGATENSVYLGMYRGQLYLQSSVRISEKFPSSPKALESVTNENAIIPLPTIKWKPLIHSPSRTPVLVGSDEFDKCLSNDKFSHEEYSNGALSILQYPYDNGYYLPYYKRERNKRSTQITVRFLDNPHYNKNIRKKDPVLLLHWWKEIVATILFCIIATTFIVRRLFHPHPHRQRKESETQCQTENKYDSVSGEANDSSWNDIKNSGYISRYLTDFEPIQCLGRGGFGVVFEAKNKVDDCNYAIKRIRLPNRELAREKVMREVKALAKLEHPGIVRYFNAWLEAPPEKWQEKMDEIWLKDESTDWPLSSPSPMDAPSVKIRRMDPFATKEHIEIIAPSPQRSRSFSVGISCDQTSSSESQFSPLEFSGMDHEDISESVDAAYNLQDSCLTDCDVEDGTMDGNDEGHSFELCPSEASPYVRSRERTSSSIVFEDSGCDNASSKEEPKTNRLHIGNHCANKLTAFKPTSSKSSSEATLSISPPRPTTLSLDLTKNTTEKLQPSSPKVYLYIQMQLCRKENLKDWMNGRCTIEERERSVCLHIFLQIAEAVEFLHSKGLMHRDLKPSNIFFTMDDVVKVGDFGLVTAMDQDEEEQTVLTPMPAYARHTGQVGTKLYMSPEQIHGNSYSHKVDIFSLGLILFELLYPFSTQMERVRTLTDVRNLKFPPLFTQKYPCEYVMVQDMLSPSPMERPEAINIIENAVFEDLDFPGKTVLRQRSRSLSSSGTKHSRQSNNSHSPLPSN

[20] = target: Luciferin 4-monooxygenase (Photinus pyralis, UniProt P08659); assay: inhibition of purified Photinus pyralis luciferase – biochemical, luminescence, dose response (AID 1891)
[21] = Luminescence Cell-Based Dose Confirmation HTS to Identify Inhibitors of Platelet Dense Granule Release. [Related pubchem assays: 1663 (Primary HTS), 1678 (Summary of Project)]; format: functional
[22] = target: T4, Eukaryotic translation initiation factor 2-alpha kinase 3; assay: Counterscreen assay for PERK inhibitors: Dose response cell-based high throughput screening assay to measure inhibition of PERK at 6 hours. [Related pubchem assays: 1522, 1416 ]; format: functional
[23] = target: Acyl-homoserine lactone acylase PvdQ (Pseudomonas aeruginosa (strain LESB58), UniProt Q9I194); assay: PvdQ acylase enzyme activity blockers – biochemical, fluorescence, plate reader and imaging, cherry-picks, dose response (AID 493231)
[24] = target: T2, Dual specificity protein phosphatase 3; assay: inhibition constants for human DUSP3 – biochemical, colorimetric, SAR follow-up (AID 2004)

For `Cc1cccc(NC(=O)CCCOc2cc(=O)n(C)c3ccccc23)n1`, the EC50 (Wee1-like protein kinase) was > 49.7 µM (inactive) and the EC50 [1] was > 49.7 µM (inactive).

In the case of `COc1cccc(/C=N/Nc2nc(Nc3ccc([N+](=O)[O-])cc3)nc(N3CCCC3)n2)c1O`, the EC50 [2] is reported as 4.69 µM (active), the IC50 [3] is reported as 2.8 µM (active) and the EC50 [4] is reported as 3.77 µM (active). For the same compound, the IC50 [5] was 2.71 µM (active), the EC50 [6] was > 38 µM (not active) and the EC50 [7] was 0.866 µM (active). The EC50 [8] was 8.48 µM (active), the EC50 (Streptococcus) was 12.1 µM (active) and the IC50 [9] was 1.64 µM (active). For the same compound, the IC50 (Beta-galactosidase) was > 66.6 µM (inactive), the AC50 (Paired box protein Pax-8) was 5.65 µM (active) and the AC50 [10] was 20.9 µM (active).

With `O=C1NC(=O)N(Cc2ccc(F)cc2)C(=O)/C1=C/c1cccs1` the EC50 [11] was 12.6 µM (active).

For `Cc1ccc(NC(=S)NNC(=O)c2ccccc2OC(F)F)cc1`, the IC50 [12] was > 100 µM (inactive), the IC50 [13] was > 100 µM (inactive) and the IC50 [14] was > 100 µM (inactive).

For `N#C/C(=C\c1cccn1S(=O)(=O)c1ccccc1)C(=O)c1ccccc1`, the IC50 [15] was > 20 µM (inactive).

In the case of `CCN(CC)c1ccc(C=C(c2nnnn2-c2ccccc2)c2nnnn2-c2ccccc2)cc1`, the IC50 [16] is reported as > 55.7 µM (not active) and the IC50 (Insulin-degrading enzyme) is reported as > 55.9 µM (not active).

In the case of `CC1(C)CC2(CC(c3ccccc3F)c3ccc(O)c(O)c3O2)NC(=S)N1` (stereo unspecified), the IC50 (Aspartyl aminopeptidase) is reported as 1.76 µM (active), the IC50 (Procathepsin L) is reported as > 59.6 µM (not active) and the IC50 [17] is reported as 39.9 µM (active). The IC50 [18] was > 80 µM (inactive).

For `COc1ccc(N=Nc2n(C)c3ccccc3[n+]2C)cc1`, the EC50 [19] was > 55.7 µM (not active), the EC50 [20] was 0.631 µM (active) and the EC50 [21] was 0.738 µM (active). The EC50 [22] was > 55.7 µM (not active).

In the case of `Cc1cccc(NC(=O)Nc2cc(C)on2)c1`, the AC50 [23] is reported as 7.61 µM (active).

In the case of `COc1ccc(-c2cc(C(=O)NCCc3ccccc3)c3ccccc3n2)c(OC)c1`, the Ki [24] is reported as 27.9 µM (inactive).
